Test results taken from paper PMC7229617, “N-alkylisatin-based microtubule destabilizers bind to the colchicine site on tubulin and retain efficacy in drug resistant acute lymphoblastic leukemia cell lines with less in vitro neurotoxicity” (Cancer Cell International, 2020).

Test system: T1, tubulin
T1 construct: gene TUBA1B; pure tubulin, alpha-beta heterodimer (colchicine site at alpha/beta interface); mixture of brain isotypes
Experiment: fluorescence competition (displacement of MTC), Equigra V5.[…] fit
Assay type: binding
Conditions: colchicine site, competitive with MTC; 10 mM phosphate pH 7, 1 mM EDTA, 1.5 mM MgCl2, 0.1 mM GTP, 25 °C; printed exponent ambiguous (10^5 or 10^4), unreliable

## O=C1C(=O)N(Cc2cccc3ccccc23)c2c(Br)cc(Br)cc21 [N1M-isatin, 5,7-dibromo-N-(naphthalene-1-ylmethyl)isatin]
  Binding affinity (M^-1) ± SEM^a: 1.4 ± 0.2 × 10^5(× 10^4)
